Assay [1] relates to Plasmodium falciparum. In words: Antimalarial activity against multidrug-resistant Plasmodium falciparum K1 infected in erythrocytes. The format is functional, organism-based.
The subject of assay [2] is Plasmodium falciparum. In words: Antimalarial activity against drug-susceptible Plasmodium falciparum NF54 infected in erythrocytes. It counts as functional, organism-based.
The subject of assay [3] is Plasmodium falciparum. In words: Antimalarial activity against Plasmodium falciparum infected in perorally dosed mice (Mus musculus) administered for 4 days. It counts as functional. Particulars: po, 96 h.
Assay [4] relates to Plasmodium falciparum. In words: Antimalarial activity against Plasmodium falciparum infected in intravenously dosed mice (Mus musculus) administered for 4 days. It counts as functional. Particulars: iv, 96 h.
Assay [5] in a line: Cytotoxicity against erythrocytes assessed as morphological changes. It counts as cell-based. Particulars: Erythrocyte.
Assay [6] deals with Plasmodium falciparum. In words: Antimalarial activity against Plasmodium falciparum infected in erythrocytes. It counts as functional, organism-based.

This passage reports IC50 and ED50 results from ChEMBL document CHEMBL1177693, “Antimalarials from nature” (Bioorg Med Chem, 2009).

Each structure is given as a SMILES string.

For `COc1cc(/C=C2/Cc3c(OC(C)=O)cc(OC(C)=O)cc3O2)cc(OC)c1OC(C)=O`, the IC50 in the assay with Plasmodium falciparum [1] was determined as 0.007 µM; with Plasmodium falciparum [2] it was 0.18 µM.
Take `C[C@H]1[C@@H](CC(COC(=O)c2cc[n+]([O-])cc2)C[C@H]2O[C@@H]3O[C@]4(C)CC[C@H]5[C@H](C)CC[C@@H]([C@H]2C)[C@@]35OO4)O[C@@H]2O[C@]3(C)CC[C@H]4[C@H](C)CC[C@@H]1[C@@]24OO3` (stereo partly specified): the ED50 in the assay with Plasmodium falciparum [3] amounted to 2 mg/kg; with Plasmodium falciparum [4] it was 0.8 mg/kg.
Turning to `CC(C)c1ccc2c(c1)CC[C@H]1[C@](C)(CO)CCC[C@]21C` [POMIFERIN A], the 50% inhibitory concentration (IC50) in assay [5] came out at 28 µM; in the assay with Plasmodium falciparum [6] it was 25.6 µM.

Broadly, the IC50 is the midpoint of a concentration-inhibition curve. Broadly, the ED50 is the dose that gives a 50% effect, or the effect in half of the subjects.
